Here are results for 5 compounds from patent US10160747B2, “Compounds and methods for kinase modulation, and indications therefor” (Plexxikon Inc., priority 2016, dated 2018).

The target of test [1] is T1, c-KIT (Homo sapiens, UniProt P10721).
T1 construct: purchased Millipore 14-559K
Nature of the test: c-KIT recombinant enzyme kinase assay (AlphaScreen). It counts as biochemical. Particulars: 100 ATP, 8 pt. How it is done: (§1) In order to determine the effect of compounds on FLT3 catalytic activity, kinase assays using recombinant enzymes and AlphaScreen® technology have been established. The catalytic activity of c-kit activity was also measured to determine selectivity of the compounds. When the kinases are catalytically active, they phosphorylate a biotinylated peptide substrate on tyrosine residues. Using AlphaScreen® technology, the ability of the compounds to affect the catalytic activity of the kinases can be measured quantitatively. The peptide substrate is immobilized by the AlphaScreen® Streptavidin Donor beads and, upon phosphorylation by a tyrosine kinase, can bind to AlphaScreen® Anti-Phosphotyrosine (PY20) Acceptor beads. Upon excitation of these beads with laser light at 680 nm, singlet oxygen is produced. This singlet oxygen is rapidly quenched, unless the AlphaScreen® Anti-Phosphotyrosine (PY20) Acceptor beads are in close proximity, in which case a proximity signal can be measured at 580 nm. In the presence of catalytic activity, there is a very strong proximity signal. Selective kinase inhibitors affect a decrease in this proximity signal through a decrease in tyrosine phosphorylation of the peptide substrate.
(§2) The assay was performed as summarized below.
(§3) Poly (Glu4-Tyr) Peptide, biotin conjugate [Biotin-GG(EEEEY)10EE] (SEQ ID NO: 4)
(§4) Final concentration=30 nM
(§5) Adenosine Triphosphate (ATP)
(§6) Final concentration for IC50 determination=10 μM (FLT3-D835Y or FLT3-ITD) or 100 μM (c-KIT)
(§7) AlphaScreen® Phosphotyrosine (PY20) Assay Kit
(§8) Final concentration=10 μg/mL
(§9) Dilute compounds in DMSO to 20× final concentration.
(§10) Add 1 μL of compound to each well of 384 well reaction plate (Perkin Elmer #6005359).
(§11) Mix enzyme and Poly (Glu4-Tyr) Peptide substrate at 1.33× final concentration in assay buffer.
(§12) Mix ATP at 5× final concentration in assay buffer.
(§13) Add 15 μL enzyme/substrate mixture to the reaction plate.
(§14) Add 4 μL of ATP to the reaction plate.
(§15) Mix Streptavidin Donor beads at 6× final concentration in Stop/Detection buffer.
(§16) Add 5 μL Streptavidin Donor beads to the reaction plate. Centrifuge 1 minute, shake to mix, and incubate at room temperature for 20 minutes.
(§17) Mix Anti-Phosphotyrosine (PY20) Acceptor beads at 6× final concentration in Stop/Detection buffer.
(§18) Add 5 μL Anti-Phosphotyrosine (PY20) beads to the reaction plate.
(§19) Centrifuge 1 minute, shake to mix, and incubate at room temperature for 60 minutes.
(§20) Read plate on Wallac EnVision™ 2103 Multilabel Reader.

Test [2] concerns the target T2, FLT3-D835Y (Homo sapiens, UniProt P36888, D835Y).
T2 construct: purchased Invitrogen PV3967
T2 sequence (P36888 27-993 D835Y): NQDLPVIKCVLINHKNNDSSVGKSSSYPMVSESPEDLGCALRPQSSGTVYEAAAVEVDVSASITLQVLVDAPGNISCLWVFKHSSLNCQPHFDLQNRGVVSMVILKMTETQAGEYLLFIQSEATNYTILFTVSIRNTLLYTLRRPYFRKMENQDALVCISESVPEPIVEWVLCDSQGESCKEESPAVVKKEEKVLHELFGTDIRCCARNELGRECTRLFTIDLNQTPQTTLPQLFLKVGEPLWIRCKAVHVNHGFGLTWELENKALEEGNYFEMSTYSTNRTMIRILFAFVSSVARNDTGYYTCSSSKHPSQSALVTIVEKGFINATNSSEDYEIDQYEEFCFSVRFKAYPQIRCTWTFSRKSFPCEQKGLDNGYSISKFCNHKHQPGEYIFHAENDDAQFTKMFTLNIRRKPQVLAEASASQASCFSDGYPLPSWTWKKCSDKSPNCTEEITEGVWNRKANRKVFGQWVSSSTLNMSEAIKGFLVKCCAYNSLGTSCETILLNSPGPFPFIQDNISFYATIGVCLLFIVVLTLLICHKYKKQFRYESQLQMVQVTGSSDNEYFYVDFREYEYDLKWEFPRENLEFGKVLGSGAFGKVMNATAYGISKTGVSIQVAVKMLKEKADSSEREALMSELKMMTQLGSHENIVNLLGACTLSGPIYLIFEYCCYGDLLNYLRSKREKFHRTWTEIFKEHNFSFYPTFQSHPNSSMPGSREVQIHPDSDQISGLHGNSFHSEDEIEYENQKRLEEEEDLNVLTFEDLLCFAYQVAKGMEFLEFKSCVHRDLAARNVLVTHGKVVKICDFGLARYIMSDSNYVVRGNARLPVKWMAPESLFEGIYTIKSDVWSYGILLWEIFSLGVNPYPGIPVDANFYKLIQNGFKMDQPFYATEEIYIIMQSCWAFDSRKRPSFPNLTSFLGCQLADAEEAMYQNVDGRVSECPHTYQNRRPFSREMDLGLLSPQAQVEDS
Nature of the test: FLT3-D835Y recombinant enzyme kinase assay (AlphaScreen). The format is biochemical. The conditions noted are these: 8 pt, GMean. The method, then:
as §1, §2, §3, §4, §5, §6, §7, §8, §9, §10, §11, §12, §13, §14, §15, §16, §17, §18, §19, §20
For orientation: Alpha assays give light when donor and acceptor beads are brought close together.

Test [3] addresses T3, FLT3-ITD (Homo sapiens, UniProt P36888).
T3 sequence (P36888 1-993): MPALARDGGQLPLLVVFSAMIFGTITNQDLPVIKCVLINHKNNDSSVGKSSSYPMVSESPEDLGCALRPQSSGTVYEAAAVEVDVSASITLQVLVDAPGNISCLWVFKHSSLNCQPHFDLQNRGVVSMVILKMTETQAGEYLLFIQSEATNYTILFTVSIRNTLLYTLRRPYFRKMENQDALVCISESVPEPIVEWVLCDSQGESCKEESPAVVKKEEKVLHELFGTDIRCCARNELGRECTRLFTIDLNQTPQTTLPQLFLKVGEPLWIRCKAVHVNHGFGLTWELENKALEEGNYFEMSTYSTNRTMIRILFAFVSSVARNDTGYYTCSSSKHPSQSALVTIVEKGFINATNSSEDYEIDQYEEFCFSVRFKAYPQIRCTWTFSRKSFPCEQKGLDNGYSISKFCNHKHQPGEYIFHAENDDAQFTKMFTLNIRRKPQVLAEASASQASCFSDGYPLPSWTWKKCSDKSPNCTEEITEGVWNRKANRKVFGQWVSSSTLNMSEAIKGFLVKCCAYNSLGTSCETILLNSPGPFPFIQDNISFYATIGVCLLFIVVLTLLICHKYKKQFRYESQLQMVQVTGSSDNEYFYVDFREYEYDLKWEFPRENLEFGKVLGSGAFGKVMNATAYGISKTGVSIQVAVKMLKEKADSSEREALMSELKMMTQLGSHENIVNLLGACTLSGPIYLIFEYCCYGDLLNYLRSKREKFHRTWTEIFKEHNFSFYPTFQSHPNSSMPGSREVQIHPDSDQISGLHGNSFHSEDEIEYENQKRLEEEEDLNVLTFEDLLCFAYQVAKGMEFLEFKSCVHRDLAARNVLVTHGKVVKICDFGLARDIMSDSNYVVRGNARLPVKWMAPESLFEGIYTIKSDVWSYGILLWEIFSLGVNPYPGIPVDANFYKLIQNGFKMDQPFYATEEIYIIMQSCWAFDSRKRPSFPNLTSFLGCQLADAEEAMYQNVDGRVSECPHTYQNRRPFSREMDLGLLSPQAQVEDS
Nature of the test: FLT3-ITD recombinant enzyme kinase assay (AlphaScreen). It counts as biochemical. Particulars: 8 pt; read-out: FLT3_ITD 8 pt: IC50. How it is done:
as §1, §2, §3, §4, §5, §6, §7, §8, §9, §10, §11, §12, §13, §14, §15, §16, §17, §18, §19, §20

The subject of test [4] is MOLM-14 D835Y (endogenous FLT3 ITD and transfected FLT3 D835Y). The test is described as follows: MOLM-14 D835Y cell proliferation assay (CellTiter-Glo). Particulars: Homo sapiens, MOLM-14, 72 h; 3 d growth, GMean. The format is cell-based. Put shortly: (§21)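 MOLM-14 cells (FLT3 ITD) carrying D835Y or F691L, 1×10^4 cells/well, eight 1:3 dilutions from 1 μM final, 0.2% DMSO, 3 days at 37 °C, 5% CO2. Viability by CellTiter-Glo luminescence (ATP content); IC50 from concentration-response.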
In general terms: In ATP-based viability assays light output follows the ATP content of the culture.

For test [5], the system named is MOLM-14 F691L (endogenous FLT3 ITD and transfected FLT3 F691L). The test is described as follows: MOLM-14 F691L cell proliferation assay (CellTiter-Glo). The conditions noted are these: Homo sapiens, MOLM-14, 72 h; 3 d growth, GMean. The format is cell-based. An outline of the steps: as §21
Test [6] has as its target T4, BA/F3-FLT3-ITD + D835Y (Homo sapiens, UniProt P36888, D835Y, cells depend on it, form not given).
T4 sequence (P36888 with tags, fused parts or gaps INS600HVDFREYEYD/D835Y): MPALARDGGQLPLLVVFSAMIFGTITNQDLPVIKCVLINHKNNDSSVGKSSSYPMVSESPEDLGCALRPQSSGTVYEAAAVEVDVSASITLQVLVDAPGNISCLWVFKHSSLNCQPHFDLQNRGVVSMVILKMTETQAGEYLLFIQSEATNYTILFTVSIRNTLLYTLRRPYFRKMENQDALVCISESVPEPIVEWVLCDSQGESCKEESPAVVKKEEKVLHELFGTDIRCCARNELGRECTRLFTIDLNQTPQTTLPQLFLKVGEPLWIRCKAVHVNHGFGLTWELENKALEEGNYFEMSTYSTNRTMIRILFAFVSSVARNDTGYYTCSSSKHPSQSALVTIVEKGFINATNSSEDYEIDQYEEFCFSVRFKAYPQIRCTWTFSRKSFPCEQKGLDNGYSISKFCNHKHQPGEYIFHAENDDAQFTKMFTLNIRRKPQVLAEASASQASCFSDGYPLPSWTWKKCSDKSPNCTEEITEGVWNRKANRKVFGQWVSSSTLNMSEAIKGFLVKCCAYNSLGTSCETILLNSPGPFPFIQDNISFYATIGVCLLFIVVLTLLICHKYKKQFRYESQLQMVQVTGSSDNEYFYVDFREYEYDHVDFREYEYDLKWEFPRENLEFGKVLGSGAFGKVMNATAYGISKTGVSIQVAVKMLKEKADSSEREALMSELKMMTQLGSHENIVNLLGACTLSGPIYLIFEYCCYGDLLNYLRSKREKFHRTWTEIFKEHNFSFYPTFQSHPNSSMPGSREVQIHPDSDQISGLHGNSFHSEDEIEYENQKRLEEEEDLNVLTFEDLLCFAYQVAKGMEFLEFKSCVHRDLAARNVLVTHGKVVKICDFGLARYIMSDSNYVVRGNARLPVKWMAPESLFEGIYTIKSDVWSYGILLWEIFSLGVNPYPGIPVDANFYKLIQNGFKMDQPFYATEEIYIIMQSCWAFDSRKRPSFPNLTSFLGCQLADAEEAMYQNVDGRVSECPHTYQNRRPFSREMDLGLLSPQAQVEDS
The test is described as follows: Engineered BA/F3 cell growth assay, FLT3 ITD/D835Y. It counts as cell-based, murine. Particulars: 3 d growth. Put shortly: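 Murine Ba/F3 cells transfected with full-length FLT3 ITD/D835Y, grown without IL-3 so growth depends on FLT3. Seeded at 1×10^4 cells/well, 8-point 1:3 series to 1 μM top (0.2% DMSO), 3 days at 37 °C. CellTiter-Glo luminescence (ATP) versus concentration gave IC50.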

As usually defined, the IC50 is the concentration that gives 50% inhibition. The term GI50 denotes the concentration at which growth is held to half of that of the control.

T1 sequence (P10721 26-976): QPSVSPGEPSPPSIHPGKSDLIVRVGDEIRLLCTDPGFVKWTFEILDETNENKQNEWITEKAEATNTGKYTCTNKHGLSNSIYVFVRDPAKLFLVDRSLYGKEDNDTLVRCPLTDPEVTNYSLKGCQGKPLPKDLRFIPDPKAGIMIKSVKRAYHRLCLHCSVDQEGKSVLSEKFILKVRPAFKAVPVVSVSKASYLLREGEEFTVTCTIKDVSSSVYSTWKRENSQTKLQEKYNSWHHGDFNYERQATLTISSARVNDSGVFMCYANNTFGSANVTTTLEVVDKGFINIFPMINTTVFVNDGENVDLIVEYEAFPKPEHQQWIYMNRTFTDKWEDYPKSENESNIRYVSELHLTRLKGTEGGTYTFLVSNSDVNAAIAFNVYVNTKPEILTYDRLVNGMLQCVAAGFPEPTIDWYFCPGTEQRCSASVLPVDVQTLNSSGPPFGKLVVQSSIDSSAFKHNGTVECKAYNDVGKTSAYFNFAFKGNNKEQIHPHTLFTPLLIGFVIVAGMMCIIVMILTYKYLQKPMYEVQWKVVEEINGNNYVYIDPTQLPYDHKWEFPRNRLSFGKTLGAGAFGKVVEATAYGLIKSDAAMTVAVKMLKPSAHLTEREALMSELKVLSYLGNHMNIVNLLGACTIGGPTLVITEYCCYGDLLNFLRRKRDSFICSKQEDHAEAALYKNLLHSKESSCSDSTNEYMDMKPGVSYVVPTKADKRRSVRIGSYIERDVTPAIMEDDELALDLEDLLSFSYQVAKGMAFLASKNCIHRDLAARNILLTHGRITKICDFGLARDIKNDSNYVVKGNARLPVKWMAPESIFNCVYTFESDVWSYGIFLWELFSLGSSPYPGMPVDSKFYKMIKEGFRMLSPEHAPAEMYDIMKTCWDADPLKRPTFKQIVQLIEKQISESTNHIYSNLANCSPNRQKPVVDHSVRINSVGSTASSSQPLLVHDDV

Turning to `COc1ncc(NC(=O)Cc2ccc(-c3cnc4[nH]nc(F)c4c3)cc2)cc1C(F)(F)F` [Compound P-0245, 2-[4-(3-fluoro-1H-pyrazolo[3,4-b]pyridin-5-yl)phenyl]-N-[6-methoxy-5-(trifluoromethyl)-3-pyridyl]acetamide], the concentration for half-maximal inhibition (IC50) in test [1] and in test [2] was 0.0001 to 10 µM throughout.
Consider `Cn1cc(Nc2ncc(-c3ccc(CC(=O)Nc4cc(F)c(F)cn4)cc3)cn2)cn1` [Compound P-0163, N-(4,5-difluoro-2-pyridyl)-2-[4-[2-[(1-methylpyrazol-4-yl)amino]pyrimidin-5-yl]phenyl]acetamide], for which the IC50 in test [1] and in test [3] was 0.0001 to 10 µM in each case.
With `O=C(Cc1ccc(-c2cnc3[nH]c(C4CC4)cc3c2)cc1F)Nc1cncc(C(F)(F)F)c1` [Compound P-0080, 2-(4-(2-cyclopropyl-1H-pyrrolo[2,3-b]pyridin-5-yl)-2-fluorophenyl)-N-(5-(trifluoromethyl)pyridin-3-yl)acetamide], the concentration for half-maximal inhibition (IC50) in test [1], in test [2] and in test [3] was 0.0001 to 10 µM in each case.
In the case of `COc1ncc(NC(=O)Cc2ccc(-c3cnc(Nc4cn[nH]c4)nc3)c(F)c2)cc1C(F)(F)F` [Compound P-0028, 2-[3-fluoro-4-[2-(1H-pyrazol-4-ylamino)pyrimidin-5-yl]phenyl]-N-[6-methoxy-5-(trifluoromethyl)-3-pyridyl]acetamide], the IC50 in test [1], in test [2] and in test [3] was 0.0001 to 10 µM in each case.
Turning to `CCC(=O)c1c[nH]c2ncc(-c3ccc(CC(=O)Nc4cnc(OC)c(C(F)(F)F)c4)c(F)c3)cc12` [Compound P-0049, 2-[2-fluoro-4-(3-propanoyl-1H-pyrrolo[2,3-b]pyridin-5-yl)phenyl]-N-[6-methoxy-5-(trifluoromethyl)-3-pyridyl]acetamide], the IC50 in test [1], in test [4] and in test [5] was 0.0001 to 10 µM each time. Further, in test [6], the GI50 was in the range of 0.0001 to 10 µM.
